# Measured values taken from patent publication EP0465481B1, “NEW S[…] DERIVATIVES OF TEICOPLANIN” (GRUPPO LEPETIT S.p.A., priority 1989, dated 1990).
# Tested on: Pseudomonas aeruginosa
# Test: MIC, standard two-fold dilution test in microtiter
# Type: cell-based
# Conditions: against Pseudomonas aeruginosa
# Protocol: Broth cultures are diluted enough so that the final inoculum is about 10^4 colony forming units/ml (CFU/mi).
substance,measurement,value
teicoplanin,MIC,≥ 32 microgram/ml
